Earlier results in patent US7014865B1, “Natural formulation for the treatment and prevention of depression, containing St. John's Wort and derivatives of dihydro- and tetrahydrofolic acid” (Merck Patent GmbH, priority 1998, dated 2006).

How the values were obtained:
Settings in all cases: in vitro
uptake of L-glutamate = test system: uptake of L-glutamate
uptake of GABA = test system: uptake of GABA
uptake of noradrenaline = test system: uptake of noradrenaline
uptake of dopamine = test system: uptake of dopamine
uptake of serotonin = test system: uptake of serotonin

hyperforin
potent inhibitor: inhibition of uptake of L-glutamate (uptake of L-glutamate) | inhibition of uptake of GABA (uptake of GABA) | inhibition of uptake of noradrenaline (uptake of noradrenaline) | inhibition of uptake of dopamine (uptake of dopamine) | inhibition of uptake of serotonin (uptake of serotonin)
